Values of other authors as cited in patent US12052992B2, “Insecticidal composition” (CLARKE MOSQUITO CONTROL PRODUCTS, INC., priority 2017, dated 2024).

Details: comparison value for water

O [water]
evaporation rate λ: 62.40 μm^2 s^−1° C.^−1
